Results: ChEMBL document CHEMBL5120916, “Structure-Activity Relationships and Antileukemia Effects of the Tricyclic Benzoic Acid FTO Inhibitors” (J Med Chem, 2022)
Activity calls are given as the source filed them. The calls are words filed in the database; no cut-off is given here.

Assays:
NB-4 [1] = experiment: Antiproliferative activity against human NB-4 cells assessed as reduction in cell viability at 10 uM administered as single dose measured after 48 hrs by CCK-8 assay; format: functional, cell-based
MONO-MAC-6 [2] = experiment: Antiproliferative activity against human MONO-MAC-6 cells assessed as reduction in cell viability at 10 uM administered as single dose measured after 48 hrs by CCK-8 assay; format: functional, cell-based
[3] = target: T1, Alpha-ketoglutarate-dependent dioxygenase FTO (Homo sapiens, UniProt Q9C0B1); experiment: Inhibition of N-terminal His-tagged human FTO expressed in Escherichia coli BL21(DE3) by PAGE based assay
Target sequence in this assay (Q9C0B1 whole entry): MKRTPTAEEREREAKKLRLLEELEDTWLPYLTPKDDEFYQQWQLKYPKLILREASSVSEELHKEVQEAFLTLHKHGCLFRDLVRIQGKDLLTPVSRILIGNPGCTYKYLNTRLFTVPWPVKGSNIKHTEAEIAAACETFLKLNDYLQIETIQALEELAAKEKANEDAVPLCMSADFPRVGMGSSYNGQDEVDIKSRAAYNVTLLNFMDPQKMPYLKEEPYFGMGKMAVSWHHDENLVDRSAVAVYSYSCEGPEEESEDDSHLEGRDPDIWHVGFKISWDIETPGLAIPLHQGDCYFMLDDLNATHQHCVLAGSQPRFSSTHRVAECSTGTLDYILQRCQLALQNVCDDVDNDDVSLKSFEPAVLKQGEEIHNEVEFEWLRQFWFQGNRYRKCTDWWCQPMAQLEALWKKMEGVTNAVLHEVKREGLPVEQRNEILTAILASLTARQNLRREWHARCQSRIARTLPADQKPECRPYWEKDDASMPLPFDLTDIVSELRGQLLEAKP

NB-4 [4] = experiment: Inhibition of colony formation in human NB-4 cells measured after 14 days by nitroblue tetrazolium chloride staining based soft agar assay; format: functional, cell-based; conditions: dose 5-15 µM, time 14.0 day, DDE = dose-dependent effect
[5] = Toxicity in busulfan treated NSG mouse xenografted with human MONO-MAC-6 cells assessed as reduction in body weight at 20 mg/kg, ip administered once daily for 22 days; format: organism-based; conditions: in vivo, 528 h, time 22 day
HEL = experiment: Antiproliferative activity against HEL cells assessed as reduction in cell viability measured after 48 hrs by CCK-8 assay; conditions: Homo sapiens
MONO-MAC-6 [6] = experiment: Antitumor activity against human MONO-MAC-6 cells xenografted in busulfan treated NSG mouse assessed as increase in animal survial rate at 20 mg/kg, ip administered once daily for 22 days; format: functional, organism-based; conditions: time 22.0 day
THP-1 = experiment: Antiproliferative activity against human THP-1 cells assessed as reduction in cell viability measured after 48 hrs by CCK-8 assay; conditions: THP-1, 48 h
NB-4 [7] = experiment: Antiproliferative activity against human NB-4 cells assessed as reduction in cell viability measured after 48 hrs by CCK-8 assay; conditions: NB-4, 48 h
MONO-MAC-6 [8] = experiment: Antiproliferative activity against human MONO-MAC-6 cells assessed as reduction in cell viability measured after 48 hrs by CCK-8 assay; conditions: MONO-MAC-6, 48 h
[9] = Acute toxicity in BALB/c mouse assessed as body weight loss at 20 mg/kg, ip administered once daily for 7 days; format: organism-based; conditions: in vivo, 168 h, time 7 day
[10] = target: T1, Alpha-ketoglutarate-dependent dioxygenase FTO
Target sequence in this assay (Q9C0B1 whole entry, looked up): as the sequence (Q9C0B1 whole entry) above
Description: Binding affinity to N-terminal His-tagged human FTO expressed in Escherichia coli BL21(DE3) assessed as change in melting temperature at 1:5 protein to compound ratio by fluorescence based thermal shift assay

[11] = target: T1, Alpha-ketoglutarate-dependent dioxygenase FTO; remark: listed apart in the source
Target sequence in this assay (Q9C0B1 whole entry, looked up): as the sequence (Q9C0B1 whole entry) above
Description: Binding affinity to N-terminal His-tagged human FTO expressed in Escherichia coli BL21(DE3) assessed as change in melting temperature at 1:20 protein to compound ratio by fluorescence based thermal shift assay

COc1cc(-c2c(C)noc2C)cc(OC)c1Nc1ccccc1C(=O)O
Activity (NB-4 [1]): Active | Activity (MONO-MAC-6 [2]): Active

Cc1noc(C)c1-c1ccc(Nc2ccccc2C(=O)O)cc1
Activity (NB-4 [1]): Active | Activity (MONO-MAC-6 [2]): Active

Cc1noc(C)c1-c1cc(Cl)c(Nc2ccc(F)cc2C(=O)O)c(Cl)c1
IC50 [3]: 1100 nM

O=C(O)c1ccccc1Nc1c(Cl)cc(-c2cc(O)cc(O)c2)cc1Cl
IC50 [3]: 2400 nM

Cc1cc(-c2cc(Cl)c(Nc3ccccc3C(=O)O)c(Cl)c2)ccn1
IC50 [3]: 6500 nM

O=C(O)c1ccccc1Nc1c(Cl)cc(-c2ccn[nH]2)cc1Cl
IC50 [3]: 7200 nM

CCc1cc(-c2c(C)noc2C)cc(CC)c1Nc1ccccc1C(=O)O
IC50 [3]: 1400 nM

Cc1noc(C)c1-c1cc(Cl)c(Nc2cccc(F)c2C(=O)O)c(Cl)c1
IC50 [3]: 1600 nM

COc1cccc(Nc2c(Cl)cc(-c3c(C)noc3C)cc2Cl)c1C(=O)O
IC50 [3]: 2200 nM

Cc1noc(C)c1-c1cc(F)c(Nc2ccccc2C(=O)O)c(Cl)c1
inhibition (NB-4 [4]): Dde | Activity [5]: Toxic | IC50 (HEL): 7700 nM | Activity (NB-4 [1]): Active | Activity (MONO-MAC-6 [6]): Active | IC50 (THP-1): 7300 nM | IC50 (NB-4 [7]): 2100 nM | IC50 (MONO-MAC-6 [8]): 1900 nM | Activity [9]: Non-Toxic | Activity (MONO-MAC-6 [2]): Active

O=C(O)c1ccccc1Nc1c(Cl)cc(-c2cnoc2)cc1Cl
IC50 [3]: 1700 nM

Cc1cc(-c2c(C)noc2C)cc(C)c1Nc1ccccc1C(=O)O
IC50 [3]: 1900 nM

O=C(O)c1ccccc1Nc1c(Cl)cc(-c2ccncc2)cc1Cl
ΔTm [10]: 0.5 °C | ΔTm [11]: 1.5 °C | IC50 [3]: 1500 nM

Cc1noc(C)c1-c1cc(Cl)c(Nc2cc(F)c(F)cc2C(=O)O)c(Cl)c1
IC50 [3]: 3400 nM
